Marks after values point to notes of the source that are not given here. Square brackets hold non-standard residues; d marks the D form. Peptide text beside a SMILES is read from it. * marks the point of attachment. Phe(4-Cl) = N[C@@H](Cc1ccc(Cl)cc1)C(=O)O; Dip = N[C@H](C(=O)O)C(c1ccccc1)c1ccccc1; hArg = N=C(N)NCCCC[C@H](N)C(=O)O; Nle = CCCC[C@H](N)C(=O)O; Abu = CC[C@H](N)C(=O)O; PhAc = O=C(Cc1ccccc1)*
Columns and labels:
[1] = tested on: GH-RH receptor isoforms on membrane fractions of human PC-3 prostate tumors; type: binding; details: general statement
Procedure, shortened: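 Competitive displacement of [^125I]JV-1-42 from crude membranes of human PC-3 prostate tumours grown as nude-mouse xenografts, with unlabelled peptides at 10^−12 to 10^−6 M. Bound radioactivity in the centrifuged pellet gamma-counted; Ki from Munson–Rodbard analysis. Relative affinity = Ki of reference peptide (JV-1-36 or JV-1-38) / Ki of test antagonist.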

[2] = tested on: PC-3 human prostate cancer xenografts; assay: PC-3 xenografts in nude mice, Experiment 3: tumor growth; type: in vivo; details: for Tumor volume (mm^3) Final / Tumor volume doubling time / Tumor weight / Tumor volume Final (% inhibition) / Tumor weight (% inhibition): 10 μg/day s.c., 28 days; for Tumor volume Final (% inhibition) / Tumor weight (% inhibition): vs control; for Tumor volume (mm^3) Initial: at start of treatment; for antitumor effect on PC-3 tumors (in words): 10 μg/day
Description: Male nude mice were implanted s.c. with 3 mm^3 pieces of PC-3 human hormone-independent prostate cancer tissue on both flanks. When tumors reached a volume of approximately 65 mm^3, the mice were divided into 7 experimental groups with 8 to 9 animals in each group and received single daily injections for 28 days as follows: 1. Control (vehicle solution); 2. JV-1-38 (10 μg/day s.c.); 3. Peptide 35 (10 μg/day s.c.); 4. Peptide 36 (10 μg/day s.c.); 5. Peptide 37 (10 μd/day s.c.); 6. Peptide 39 (10 μg/day s.c.); 7. Peptide 41 (10 μg/day s.c.). Tumor volumes were measured twice a week. The experiment was ended on day 28 by sacrificing the mice under Isofurane anesthesia. Resulting tumors were cleaned, weighed, and snapfrozen until further analyses. Trunk blood was collected from the abdominal aorta and serum was separated for RIA measurement of IGF-I. Statistical analyses of the measurement results were done by ANOVA followed by Fisher test; data are presented as the means±S.E.

[3] = tested on: hGH-RH(1-29)NH2 induced GH release; assay: Inhibition of GH release in superfused rat pituitary system; type: cell-based; details: for GH response (% of control) 0 min / GH response (% of control) 30 min / GH response (% of control) 60 min / GH response (% of control) 90 min / GH response (% of control) 120 min: antagonist 30 nM; for GH response (% of control) 0 min: 1 nM hGH-RH(1-29)NH2 at 0 min; for GH response (% of control) 30 min: 1 nM hGH-RH(1-29)NH2 at 30 min; for GH response (% of control) 60 min: 1 nM hGH-RH(1-29)NH2 at 60 min; for GH response (% of control) 90 min: 1 nM hGH-RH(1-29)NH2 at 90 min; for GH response (% of control) 120 min: 1 nM hGH-RH(1-29)NH2 at 120 min
Procedure, shortened: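 GH output was quantified by double-antibody RIA in superfusates of rat pituitary cells. Peptides were applied for 9 min at various concentrations before a 3-min 1 nM hGH-RH(1-29)NH2 pulse, with further pulses 30–120 min later; net integral responses given as percent of the original response.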

IGF-I = assay: PC-3 xenografts, Experiment 2: serum IGF-I (RIA); type: in vivo, nude mice; details: 5 μg/day s.c., 28 days
Excerpt: For the measurement of GH and IGF-I levels in the serum, as well as IGF-I and IGF-II concentrations in the cytosol fraction of tumors, blood samples and tumor samples were collected and processed as described (Braczkowski R, Schally A V, Plonowski A, Varga J L, Groot K, Krupa M, Armatis P, Cancer 95: 1735-1745, 2002), hereby incorporated by reference. Briefly, blood samples are centrifuged to separate the serum, tumors are homogenized and centrifuged to separate the cytosol fraction. Serum GH is then measured by the double-antibody RIA method. Before measurement by RIA, IGF-I and IGF-II are extracted from serum and cytosol fractions using an acid-ethanol cryoprecipitation method that eliminates most of the IGF binding proteins, which can interfere with the RIA. IGF-I concentration is measured by RIA using IGF-I as a standard and goat anti-IGF-I antibody (both from DSL Inc., Webster, Tex.). IGF-II concentration is measured by RIA using human recombinant IGF-II (Bachem) as a standard and anti-IGF-II monoclonal antibody (Amano International Enzyme, Troy, Va.).
(§1) Male nude mice were implanted s.c. with 3 mm^3 pieces of PC-3 human hormone-independent prostate cancer tissue on both flanks. When tumors reached a volume of approx. 50 mm^3, the mice were divided into 5 experimental groups with 7 to 8 animals in each group and received single daily injections for 28 days as follows: 1. Control (vehicle solution); 2. JV-1-38 (10 μg/day s.c.); 3 Peptide 31 (10 μg/day s.c.); 4. Peptide 67 (10 μg/day s.c.); 5. Peptide 62 (10 μg/day s.c.). Tumor volumes were measured twice a week. The experiment was ended on day 29 by sacrificing the mice under Isoflurane anesthesia. Resulting tumors were cleaned, weighed, and snap-frozen until further analyses. Trunk blood was collected from the abdominal aorta and serum was separated for RIA measurement of IGF-I. Statistical analyses of the measurement results were done by two-tailed t-test; data are presented as the means±S.E.
(§2) Experiment 2 was similar to Experiment 1, with the difference that Experiment 2 was started when PC-3 tumors had grown to approximately 30 mm^3 in volume. At this time, the animals were divided into 8 experimental groups with 8 animals in each group, and received single daily injections for 28 days as follows. 1. Control (vehicle solution); 2. JV-1-38 (10 μg/day s.c.); 3. Peptide 46 (5 μg/day: s.c.); 4. Peptide 77 (5 μg/day s.c); 5. Peptide 76 (5 μg/day s.c.); 6. Peptide 70 (5 μg/day s.c.); 7 Peptide 79 (5 μg/day s.c.); 8. Peptide 80 (5 μg/day s.c.). Further details of Experiment 2 are the same as for Experiment 1.

[4] = tested on: PC-3 human prostate cancer xenografts; assay: PC-3 xenografts in nude mice, Experiment 2: tumor growth; type: in vivo
Description: as §1, §2

[5] = 5 μg/day s.c., 28 days, vs control

Compound | binding affinities to the tumoral receptors for GH-RH (in words) [1] | Tumor volume (mm^3) Final [2] | Tumor volume doubling time [2] [days] | Tumor weight [2] [mg] | Tumor volume Final (% inhibition) [2] | Tumor weight (% inhibition) [2] | Tumor volume (mm^3) Initial [2] [mm^3] | GH response (% of control) 0 min [3] | GH response (% of control) 30 min [3] | GH response (% of control) 60 min [3] | GH response (% of control) 90 min [3] | GH response (% of control) 120 min [3] | antitumor effect on PC-3 tumors (in words) [2] | also measured
CCCC[C@H](NC(=O)[C@@H](NC(=O)[C@H](CC(=O)O)NC(=O)[C@H](CCC(N)=O)NC(=O)[C@H](CC(C)C)NC(=O)[C@H](CC(C)C)NC(=O)[C@H](CCCCN)NC(=O)[C@H](CCCNC(=N)N)NC(=O)[C@H](C)NC(=O)[C@H](CO)NC(=O)[C@H](CC(C)C)NC(=O)[C@H](CCC(N)=O)NC(=O)[C@H](CC)NC(=O)[C@H](CC(C)C)NC(=O)[C@@H](NC(=O)[C@H](CCCCN)NC(=O)[C@H](CCCNC(=N)N)NC(=O)[C@H](Cc1ccc(OCC)cc1)NC(=O)[C@H](CCCCNC(=N)N)NC(=O)[C@H](CC(N)=O)NC(=O)[C@@H](NC(=O)[C@H](Cc1ccc(Cl)cc1)NC(=O)[C@@H](NC(=O)[C@H](C)NC(=O)[C@H](CC(=O)O)NC(=O)[C@@H](CCCNC(=N)N)NC(=O)[C@H](Cc1ccc(O)cc1)NC(=O)Cc1ccccc1)[C@@H](C)CC)[C@@H](C)O)C(C)C)[C@@H](C)CC)C(=O)N[C@H](CCCNC(=N)N)C(=O)N[C@@H](CCCCNC(=N)N)C(N)=O [Peptide 41, [PhAc-Tyr^1, D-Arg^2, Phe(pCl)^6, Har^9, Tyr(Et)^10, Abu^15, Nle^27, D-Arg^28, Har^29]hGH-RH(1-29)NH2] (PhAc-Y[dR]DAI[Phe(4-Cl)]TN[hArg]Y(Et)RKVL[Abu]QLSARKLLQDI[Nle][dR][hArg]-NH2) | extremely high binding affinities | 341 ± 107* mm^3 | 28.2 ± 9.85 | 579 ± 188 | (54%) | (17%) | 66.7 ± 12.5 | 47 % of control | 16 % of control | 14 % of control | 15 % of control | 16 % of control |  | endocrine antagonistic potency: inhibition of the GH release stimulated by hGH-RH(1-29)NH2 (in words) ([3]; general statement, in vitro and in vivo): high endocrine antagonistic potencies
[PhAc-Tyr^1, D-Arg^2, Phe(pCl)^6, Har^9, Tyr(Me)^10, Abu^15, Nle^27, D-Arg^28, Har^29]hGH-RH(1-29)NHEt [Peptide 46] |  |  |  |  |  |  |  | 91 % of control | 28 % of control | 31 % of control | 56 % of control | 30 % of control |  | Serum IGF-I (IGF-I): 288 ± 17.9 ng/mL; Serum IGF-I (% inhibition) (IGF-I; vs control): 0%; Tumor volume (mm^3) Initial ([4]; 5 μg/day groups, at start of treatment): 26.6 ± 2.7 mm^3; Tumor volume (mm^3) Final ([4]; 5 μg/day s.c., 28 days): 246 ± 93.7 mm^3; Tumor volume doubling time ([4]; 5 μg/day s.c., 28 days): 11.2 ± 1.3 days; Tumor weight ([4]; 5 μg/day s.c., 28 days): 188 ± 66.1 mg; Tumor volume Final (% inhibition) [4, 5]: (30%); Tumor weight (% inhibition) [4, 5]: (34%)
CCCC[C@H](NC(=O)[C@@H](NC(=O)[C@H](CC(=O)O)NC(=O)[C@H](CCC(N)=O)NC(=O)[C@H](CC(C)C)NC(=O)[C@H](CC(C)C)NC(=O)[C@H](CCCCN)NC(=O)[C@H](CCCNC(=N)N)NC(=O)[C@H](C)NC(=O)[C@H](CO)NC(=O)[C@H](CC(C)C)NC(=O)[C@H](CCC(N)=O)NC(=O)[C@H](CC)NC(=O)[C@H](CC(C)C)NC(=O)[C@@H](NC(=O)[C@H](CCCCN)NC(=O)[C@H](CCCNC(=N)N)NC(=O)[C@@H](NC(=O)[C@H](CCCCNC(=N)N)NC(=O)[C@H](CC(N)=O)NC(=O)[C@@H](NC(=O)[C@H](Cc1ccc(Cl)cc1)NC(=O)[C@@H](NC(=O)[C@H](C)NC(=O)[C@H](CC(=O)O)NC(=O)[C@@H](CCCNC(=N)N)NC(=O)[C@H](Cc1ccc(O)cc1)NC(=O)Cc1ccccc1)[C@@H](C)CC)[C@@H](C)O)C(c1ccccc1)c1ccccc1)C(C)C)[C@@H](C)CC)C(=O)N[C@H](CCCNC(=N)N)C(=O)N[C@@H](CCCCNC(=N)N)C(N)=O [Peptide 36, [PhAc-Tyr^1, D-Arg^2, Phe(pCl)^6, Har^9, Dip^10, Abu^15, Nle^27, D-Arg^28, Har^29]hGH-RH(1-29)NH2] (PhAc-Y[dR]DAI[Phe(4-Cl)]TN[hArg][Dip]RKVL[Abu]QLSARKLLQDI[Nle][dR][hArg]-NH2) | extremely high binding affinities | 214 ± 72.6** mm^3 | 18.7 ± 3.83 | 361 ± 89.6 | (76%) | (48%) | 68.0 ± 11.7 | 104 % of control | 90 % of control | 112 % of control | 97 % of control | 120 % of control | more potent antitumor effect than reference peptide JV-1-38 | 
[PhAc-Tyr^1, D-Arg^2, Phe(pCl)^6, Har^9, Phe(pNO2)^10, Abu^15, Nle^27, D-Arg^28, Har^29]hGH-RH(1-29)NH2 [Peptide 39] | extremely high binding affinities | 271 ± 109** mm^3 | 19.6 ± 2.10 | 247 ± 55.4 | (66%) | (65%) | 66.7 ± 11.2 | 63 % of control | 54 % of control | 36 % of control | 37 % of control | 36 % of control | more potent antitumor effect than reference peptide JV-1-38 | 
[PhAc-Tyr^1, D-Arg^2, Phe(pCl)^6, Har^9, 2-Nal^10, Abu^15, Nle^27, D-Arg^28, Har^29]hGH-RH(1-29)NH2 [Peptide 35] | extremely high binding affinities | 261 ± 52.9** mm^3 | 17.0 ± 2.32 | 286 ± 58.9 | (68%) | (59%) | 65.7 ± 11.3 | 91 % of control | 57 % of control | 80 % of control | 66 % of control | 72 % of control | more potent antitumor effect than reference peptide JV-1-38 | 
